Experimental data published in publication PMC4326489, “Efficacy and pharmacokinetic evaluation of a novel anti-malarial compound (NP046) in a mouse model” (Malaria Journal, 2015).
Values after ≈ are worked out from the molar mass of the structure shown.

What was measured:
[1] = system: Plasmodium berghei transfected with green fluorescence protein (strain ANKA); assay: In vivo efficacy (four-day dosing) in P. berghei-infected mice, % parasitaemia by flow cytometry; parameters: species or system Plasmodium berghei in male C57BL/6 mice; details: 10 mg/kg oral, day five post-infection
Protocol: Plasmodium berghei transfected with green fluorescence protein (strain ANKA), a chloroquine-sensitive strain, was stored in liquid nitrogen. Parasites were thawed and administered intraperitoneally (IP) to infect two donor mice a week before the experiment commenced. […] Finally, each of the test animals received 200 μl of the P. berghei-infected RBCs (1×10^7 per 200 μl PBS) IP to infect them with the parasite. There were three animals per dose group, and each of them received 200 μl of NP046 in water orally and intravenously (volume adjusted relative to the weight of mouse) at their respective dose concentration as shown below:
The test compound was administered to the animals once a day for four days. […] Blood samples were collected via tail bleeding in tubes containing PBS on day 5, and % parasitaemia was determined with FACSCalibur™ using the software CellQuestPro [5].
Finally, the percentage parasite growth inhibition was calculated using the following equation [6]: [drawing 1]

[2] = Kinetic solubility (HPLC-UV); format: physicochemical; details: aqueous buffer, kinetic from dmso stock, PBS pH 2.0
Protocol: The concentration of the test compound (x) in PBS samples was calculated from the peak area (y) in its UV chromatogram by extrapolation from the three-point calibration line, using the equation y = ax + b; where a = slope and b = intercept.
Summary of the assay method for the determination kinetic solubility:
PBS was prepared and its pH adjusted to 2.0 and 7.4
primary stock solutions of the test compounds and controls (reserpine and hydrocortisone) in DMSO at 10 mM were prepared
Samples were briefly vortex mixed
samples were incubated for 2 hours while mixing in an incubator with orbital shaker at 200 rpm
samples were centrifuged at 3500 rpm for 15 minutes at 22 °C
the supernatant of the standards were transferred from the clear 96-well plate into an opaque, round bottom 96-well analysis plate, while the aqueous samples were filtered using a vacuum manifold through a multi-screen filter plate (MSRLN 0450, 0.4 µM), into the same opaque, round bottom 96-well plate
samples were analysed using HPLC-UV method by injecting the STDs in duplicate, and the samples in singlet.

Row | solubility at 2 h [2] [µM] | SMILES | % growth inhibition ([1]; relative to negative control (placebo)) [%] | % parasitaemia ([1]; once a day for four days, mean ± S.E.M) [%]
1 | – | CCN(CC)CCCC(C)Nc1ccnc2cc(Cl)ccc12 (stereo not drawn) [Positive control, chloroquine phosphate, reference compound] | 100 | 0.01 ± 0.0
2 | 193 (≈ 117 µg/mL) | COC(=O)[C@H]1[C@H]2C[C@@H]3c4[nH]c5cc(OC)ccc5c4CCN3C[C@H]2C[C@@H](OC(=O)c2cc(OC)c(OC)c(OC)c2)[C@@H]1OC [Reserpine, reference compound] | – | –
